Measured values reported in ChEMBL document CHEMBL4732189, “A facile synthesis of diaryl pyrroles led to the discovery of potent colchicine site antimitotic agents” (Eur J Med Chem, 2021).

How the values were obtained:
HL-60 = experiment: Antiproliferative activity against human HL-60 cells assessed as reduction in cell viability after 72 hrs by MTT assay; assay type: functional, cell-based; conditions: HL-60, 72 h
HeLa = experiment: cells; conditions: Homo sapiens, 72 h
Description: Antiproliferative activity against human HeLa cells assessed as reduction in cell viability after 72 hrs by MTT assay

SEM cells = experiment: Antiproliferative activity against human SEM cells assessed as reduction in cell viability after 72 hrs by MTT assay; assay type: functional, cell-based
CCRF-CEM = experiment: Antiproliferative activity against human CCRF-CEM cells assessed as reduction in cell viability after 72 hrs by MTT assay; assay type: functional, cell-based
A549 = experiment: cells; conditions: Homo sapiens, A549, 72 h
Description: Antiproliferative activity against human A549 cells assessed as reduction in cell viability after 72 hrs by MTT assay

HT-29 = experiment: cells; conditions: Homo sapiens, HT-29, 72 h
[1] = Inhibition of bovine brain tubulin polymerization incubated for 15 mins followed by GTP addition and measured after 20 mins by spectrophotometric method; assay type: tissue-based, Bos taurus
Bos taurus [2] = species on record: Bos taurus; experiment: Displacement of [3H]colchicine from bovine brain tubulin at 5 uM by DEAE-cellulose filter method relative to control; assay type: tissue-based
Bos taurus [3] = species on record: Bos taurus; experiment: Displacement of [3H]colchicine from bovine brain tubulin at 0.5 uM by DEAE-cellulose filter method relative to control; assay type: tissue-based
KB = experiment: Antiproliferative activity against human KB cells assessed as reduction in cell viability after 72 hrs by MTT assay; assay type: functional, cell-based
HT-1080 = experiment: Antiproliferative activity against human […] cells assessed as reduction in cell viability after 72 hrs by MTT assay; assay type: functional, cell-based; conditions: HT-1080, 72 h
SGC-7901 = experiment: Antiproliferative activity against human SGC-7901 cells assessed as reduction in cell viability after 72 hrs by MTT assay; assay type: functional, cell-based; conditions: SGC-7901, 72 h
Tubulin = experiment: Inhibition of tubulin (unknown origin) polymerization incubated for 90 mins by fluorescence-based assay; assay type: protein-complex assay, Homo sapiens

| Compound | IC50 (HL-60) [nM] | IC50 (HeLa) [nM] | IC50 (SEM cells) [nM] | IC50 (CCRF-CEM) [nM] | IC50 (A549) [nM] | IC50 (HT-29) [nM] | IC50 [1] [nM] | inhibition (Bos taurus [2]) [%] | inhibition (Bos taurus [3]) [%] | IC50 (KB) [nM] | IC50 (HT-1080) [nM] | IC50 (SGC-7901) [nM] | IC50 (Tubulin) [nM] |
| --- | --- | --- | --- | --- | --- | --- | --- | --- | --- | --- | --- | --- | --- |
| COc1ccc(-c2cccn2-c2cc(OC)c(OC)c(OC)c2)cc1 | 470 | 1920 | 150 | 2510 | > 10000 | 2120 | – | – | – | – | – | – | – |
| COc1ccc(-c2c[nH]cc2-c2cc(OC)c(OC)c(OC)c2)cc1F | 33.6 | 33 | 5.3 | 53 | 203 | 48 | – | – | – | – | – | – | – |
| CCSc1ccc(-c2c[nH]cc2-c2cc(OC)c(OC)c(OC)c2)cc1 | 2660 | 386 | 480 | 3070 | 336 | 630 | – | – | – | – | – | – | – |
| COc1ccc(-c2cccn2-c2cc(OC)c(OC)c(OC)c2)cc1C | 3930 | 9810 | 1010 | 2510 | > 10000 | > 10000 | – | – | – | – | – | – | – |
| COc1cc(-c2cccn2-c2cc(OC)c(OC)c(OC)c2)ccc1C | 3620 | > 10000 | 2310 | 2810 | > 10000 | > 10000 | – | – | – | – | – | – | – |
| COc1cc(-n2cccc2-c2ccc(C)cc2)cc(OC)c1OC | 350 | 3220 | 270 | 2430 | 9620 | 3910 | 1600 | 60 | – | – | – | – | – |
| CCSc1ccc(-c2cccn2-c2cc(OC)c(OC)c(OC)c2)cc1 | 3720 | 3910 | 1550 | 4630 | > 10000 | 9420 | – | – | – | – | – | – | – |
| CCc1ccc(-c2c[nH]cc2-c2cc(OC)c(OC)c(OC)c2)cc1 | 164 | 297 | 48 | 226 | 257 | 289 | – | – | – | – | – | – | – |
| COc1cc(-c2c[nH]cc2-c2ccc(C)cc2)cc(OC)c1OC | 31.7 | 54 | 17.2 | 47 | 98 | 130 | 1200 | 83 | – | – | – | – | – |
| COCOc1ccc(-c2c[nH]cc2-c2cc(OC)c(OC)c(OC)c2)cc1 | > 10000 | > 10000 | > 10000 | > 10000 | 8000 | > 10000 | – | – | – | – | – | – | – |
| CCOc1ccc(-c2cccn2-c2cc(OC)c(OC)c(OC)c2)cc1 | 360 | 390 | 140 | 1910 | 4520 | 390 | 5600 | 63 | – | – | – | – | – |
| COc1cc(-n2cccc2-c2ccc3ccccc3c2)cc(OC)c1OC | 400 | 410 | 150 | 1310 | 3100 | 650 | 1600 | 74 | – | – | – | – | – |
| COc1cc(-n2cccc2-c2ccc(SC)cc2)cc(OC)c1OC | 810 | > 10000 | 200 | 2810 | > 10000 | > 10000 | – | – | – | – | – | – | – |
| COc1cc(-n2cccc2-c2cc3ccccc3s2)cc(OC)c1OC | 3010 | 950 | 290 | 2920 | > 10000 | 5910 | – | – | – | – | – | – | – |
| CCOc1ccc(-c2c[nH]cc2-c2cc(OC)c(OC)c(OC)c2)cc1Cl | 144 | 37 | 39 | 153 | 79 | 64 | 710 | 90 | 68 | – | – | – | – |
| COc1ccc(-c2cccn2-c2cc(OC)c(OC)c(OC)c2)cc1F | 370 | 6120 | 200 | 1710 | 9010 | 4120 | 2600 | 64 | – | – | – | – | – |
| COc1cc(-c2cccn2-c2ccc(C)c(C)c2)cc(OC)c1OC | 4010 | > 10000 | 2010 | 3510 | > 10000 | > 10000 | – | – | – | – | – | – | – |
| COc1ccc(/C=C\c2cc(OC)c(OC)c(OC)c2)cc1O [COMBRETASTATIN A4] | – | – | 5 | 2 | – | – | – | – | – | – | – | – | – |
| COc1cc(-c2cccn2-c2ccc(C)cc2)cc(OC)c1OC | 630 | 3310 | 140 | 2410 | > 10000 | 5220 | 2400 | 55 | – | – | – | – | – |
| COc1cc(-c2cccn2-c2cccc3ccccc23)cc(OC)c1OC | > 10000 | > 10000 | 7120 | 8610 | > 10000 | > 10000 | – | – | – | – | – | – | – |

| Compound | IC50 (HL-60) [nM] | IC50 (HeLa) [nM] | IC50 (SEM cells) [nM] | IC50 (CCRF-CEM) [nM] | IC50 (A549) [nM] | IC50 (HT-29) [nM] | IC50 [1] [nM] | inhibition (Bos taurus [2]) [%] | inhibition (Bos taurus [3]) [%] | IC50 (KB) [nM] | IC50 (HT-1080) [nM] | IC50 (SGC-7901) [nM] | IC50 (Tubulin) [nM] |
| --- | --- | --- | --- | --- | --- | --- | --- | --- | --- | --- | --- | --- | --- |
| COc1cc(-c2cccn2-c2ccc(N(C)C)cc2)cc(OC)c1OC | 2620 | 5610 | 610 | 3910 | > 10000 | 7120 | – | – | – | – | – | – | – |
| COc1cc(-c2c[nH]cc2-c2cc3ccccc3s2)cc(OC)c1OC | 35.3 | 43 | 37.3 | 155 | 228 | 383 | – | – | – | – | – | – | – |
| CCOc1ccc(-n2cccc2-c2cc(OC)c(OC)c(OC)c2)cc1 | 430 | 3420 | 270 | 3020 | > 10000 | 5520 | 2300 | 57 | – | – | – | – | – |
| COc1cc(-n2cccc2-c2cc(C)c(OC)c(C)c2)cc(OC)c1OC | > 10000 | > 10000 | 7920 | 9110 | > 10000 | > 10000 | – | – | – | – | – | – | – |
| CCCc1ccc(-c2cccn2-c2cc(OC)c(OC)c(OC)c2)cc1 | > 10000 | > 10000 | > 10000 | 4910 | > 10000 | > 10000 | – | – | – | – | – | – | – |
| COc1cc(-c2c[nH]cc2-c2ccc3ccccc3c2)cc(OC)c1OC | 54 | 137 | 32 | 87.9 | 228 | 255 | – | – | – | – | – | – | – |
| CCc1ccc(-n2cccc2-c2cc(OC)c(OC)c(OC)c2)cc1 | 3610 | > 10000 | 1330 | 4310 | > 10000 | 8340 | – | – | – | – | – | – | – |
| COc1ccc(-c2c[nH]cc2-c2cc(OC)c(OC)c(OC)c2)cc1Cl | 177 | 297 | 69.3 | 280 | 243 | 279 | – | – | – | – | – | – | – |
| COc1cccc(-n2cccc2-c2cc(OC)c(OC)c(OC)c2)c1 | 3110 | > 10000 | 2010 | 5010 | > 10000 | > 10000 | – | – | – | – | – | – | – |
| CCOc1ccc(-c2c[nH]cc2-c2cc(OC)c(OC)c(OC)c2)cc1 | 149 | 37 | 2.8 | 16.6 | 81 | 42 | 820 | 92 | 80 | – | – | – | – |
| COc1ccc(-n2cccc2-c2cc(OC)c(OC)c(OC)c2)cc1N | – | – | – | – | – | – | – | – | – | 45 | 70 | 390 | 10000 |
| COc1cc(-c2c[nH]cc2-c2ccc(OC(F)(F)F)cc2)cc(OC)c1OC | 5950 | 5230 | 4790 | 6260 | 4230 | 5460 | – | – | – | – | – | – | – |
| COc1ccc(-c2c[nH]cc2-c2cc(OC)c(OC)c(OC)c2)cc1 | 255 | 28 | 34.6 | 117 | 88 | 31 | – | – | – | – | – | – | – |
| COc1cc(-c2cccn2-c2ccc3ccccc3c2)cc(OC)c1OC | 400 | 430 | 190 | 1410 | 5520 | 840 | 1600 | 70 | – | – | – | – | – |
| COc1cc(-c2c[nH]cc2-c2ccc(C(F)(F)F)cc2)cc(OC)c1OC | 933 | 445 | 343 | 1340 | 408 | 865 | – | – | – | – | – | – | – |
| CCCOc1ccc(-c2c[nH]cc2-c2cc(OC)c(OC)c(OC)c2)cc1 | 3620 | 370 | 913 | 4240 | 683 | 703 | – | – | – | – | – | – | – |
| COc1ccc(-c2cccn2-c2cc(OC)c(OC)c(OC)c2)cc1Cl | 3220 | 9810 | 550 | 2910 | > 10000 | > 10000 | – | – | – | – | – | – | – |
| COc1cc(-n2cccc2-c2ccc(C)c(C)c2)cc(OC)c1OC | 4010 | 3280 | 750 | 3200 | > 10000 | 7810 | – | – | – | – | – | – | – |
| CCOc1ccc(-c2cccn2-c2cc(OC)c(OC)c(OC)c2)cc1Cl | 390 | 350 | 100 | 2920 | 8400 | 730 | 1300 | 68 | – | – | – | – | – |
| CCc1ccc(-c2cccn2-c2cc(OC)c(OC)c(OC)c2)cc1 | 1130 | 9920 | 310 | 3010 | > 10000 | 5440 | – | – | – | – | – | – | – |
